ChEMBL document CHEMBL1201862, “PubChem BioAssay data set” (2004)
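A five-concentration, 48-hour dose response in 96-well plates underlies each endpoint, interpolated linearly between surrounding concentrations. GI50 = concentration required for 50% inhibition of growth.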 Activity calls are given as the source filed them. No stated cut-off is given here; in the data, active = GI50 up to about 1.1 µM and inactive = higher.

Key:
Test in all cases: growth of human tumour cells (NCI), 48 h
OVCAR-5 = tested on: OVCAR-5
HCT-15 = tested on: HCT-15
EKVX = tested on: EKVX
HOP-92 = tested on: HOP-92
HCC 2998 = tested on: HCC 2998
A549 = tested on: A549
SK-MEL-28 = tested on: SK-MEL-28
RPMI-8226 = tested on: RPMI-8226
SNB-19 = tested on: SNB-19
HCT-116 = tested on: HCT-116
NCI-H460 = tested on: NCI-H460
KM12 = tested on: KM12
NCI/ADR-RES = tested on: NCI/ADR-RES
HT-29 = tested on: HT-29
UO-31 = tested on: UO-31
SW-620 = tested on: SW-620
M14 = tested on: M14
SF-268 = tested on: SF-268
DU-145 = tested on: DU-145
SF-539 = tested on: SF-539
TK-10 = tested on: TK-10
SK-MEL-5 = tested on: SK-MEL-5
ACHN = tested on: ACHN
MOLT-4 = tested on: MOLT-4
COLO 205 = tested on: COLO 205
MDA-N = tested on: MDA-N
OVCAR-8 = tested on: OVCAR-8
SK-MEL-2 = tested on: SK-MEL-2
LOX IMVI = tested on: LOX IMVI
UACC-62 = tested on: UACC-62
SN12C = tested on: SN12C
OVCAR-3 = tested on: OVCAR-3
MDA-MB-231 = tested on: MDA-MB-231
NCI-H23 = tested on: NCI-H23
K562 = tested on: K562
SK-OV-3 = tested on: SK-OV-3
RXF 393 = tested on: RXF 393
HL-60 = tested on: HL-60
SNB-75 = tested on: SNB-75
MCF7 = tested on: MCF7
OVCAR-4 = tested on: OVCAR-4
Hs-578T = tested on: Hs-578T
T47D = tested on: T47D
NCI-H522 = tested on: NCI-H522
PC-3 = tested on: PC-3
CCRF-CEM = tested on: CCRF-CEM
SR = tested on: SR
U-251 = tested on: U-251
MDA-MB-435 = tested on: MDA-MB-435
UACC-257 = tested on: UACC-257
SF-295 = tested on: SF-295
CAKI-1 = tested on: CAKI-1
IGROV-1 = tested on: IGROV-1
BT-549 = tested on: BT-549
786-0 = tested on: 786-0
HOP-62 = tested on: HOP-62
Malme-3M = tested on: Malme-3M
A498 = tested on: A498
NCI-H226 = tested on: NCI-H226

Measured: GI50

CCOC(=O)C(NC(=O)CC)(Nc1ccccc1OC)C(F)(F)F (stereo not drawn)
> 100 µM: HCT-15
inactive: OVCAR-5 > 100 µM | EKVX > 100 µM | HOP-92 > 100 µM | HCC 2998 > 100 µM | A549 > 100 µM | SK-MEL-28 > 100 µM | RPMI-8226 > 100 µM | SNB-19 > 100 µM | HCT-116 > 100 µM | NCI-H460 > 100 µM | KM12 > 100 µM | NCI/ADR-RES > 100 µM | HT-29 > 100 µM | UO-31 > 100 µM | SW-620 > 100 µM | M14 > 100 µM | SF-268 > 100 µM | DU-145 > 100 µM | SF-539 > 100 µM | TK-10 > 100 µM | SK-MEL-5 > 100 µM | ACHN > 100 µM | MOLT-4 > 100 µM | COLO 205 > 100 µM | MDA-N > 100 µM | OVCAR-8 > 100 µM | SK-MEL-2 > 100 µM | LOX IMVI > 100 µM | UACC-62 > 100 µM | SN12C > 100 µM | OVCAR-3 > 100 µM | MDA-MB-231 > 100 µM | NCI-H23 > 100 µM | K562 > 100 µM | SK-OV-3 > 100 µM | RXF 393 > 100 µM | HL-60 > 100 µM | SNB-75 > 100 µM | MCF7 > 100 µM | OVCAR-4 > 100 µM | Hs-578T > 100 µM | T47D > 100 µM | NCI-H522 > 100 µM | PC-3 > 100 µM | CCRF-CEM > 100 µM | SR > 100 µM | U-251 > 100 µM | MDA-MB-435 > 100 µM | UACC-257 > 100 µM | SF-295 > 100 µM | CAKI-1 13 µM | IGROV-1 > 100 µM

CC[C@@]1(O)C(=O)OCc2c1cc1n(c2=O)Cc2c-1nc1ccccc1c2/C=N\c1ccc(N[C@@H]2c3cc4c(cc3[C@@H](c3cc(OC)c(O)c(OC)c3)[C@H]3C(=O)OC[C@@H]32)OCO4)cc1
active: BT-549 0.11 µM | A549 0.038 µM | SNB-19 0.0446 µM | HCT-116 0.033 µM | NCI-H460 < 0.01 µM | 786-0 < 0.0104 µM | UO-31 0.0403 µM | M14 0.0194 µM | SF-268 < 0.0185 µM | DU-145 < 0.01 µM | SK-MEL-5 0.0315 µM | ACHN < 0.01 µM | MOLT-4 < 0.01 µM | NCI-H23 0.0198 µM | K562 0.0585 µM | HOP-62 < 0.0136 µM | MCF7 < 0.01 µM | T47D < 0.014 µM | NCI-H522 0.0427 µM | SR < 0.01 µM | U-251 0.171 µM | UACC-257 0.315 µM

C[C@@H]1[C@H](C)N1CC(O)Cn1ccnc1[N+](=O)[O-] (stereo partly drawn)
inactive: OVCAR-5 > 100 µM | EKVX > 100 µM | HCC 2998 > 100 µM | A549 > 100 µM | SK-MEL-28 > 100 µM | SNB-19 > 100 µM | HCT-116 > 100 µM | NCI-H460 > 100 µM | Malme-3M > 100 µM | KM12 > 100 µM | NCI/ADR-RES > 100 µM | HT-29 > 100 µM | 786-0 > 100 µM | UO-31 > 100 µM | SW-620 > 100 µM | M14 > 100 µM | SF-268 > 100 µM | DU-145 > 100 µM | SF-539 > 100 µM | TK-10 > 100 µM | A498 > 100 µM | SK-MEL-5 > 100 µM | ACHN > 100 µM | MOLT-4 > 100 µM | COLO 205 > 100 µM | MDA-N > 100 µM | OVCAR-8 > 100 µM | NCI-H226 > 100 µM | SK-MEL-2 > 100 µM | LOX IMVI > 100 µM | UACC-62 > 100 µM | SN12C > 100 µM | OVCAR-3 > 100 µM | MDA-MB-231 > 100 µM | NCI-H23 > 100 µM | K562 > 100 µM | HOP-62 > 100 µM | SK-OV-3 > 100 µM | RXF 393 > 100 µM | HL-60 > 100 µM | SNB-75 > 100 µM | MCF7 > 100 µM | OVCAR-4 > 100 µM | Hs-578T > 100 µM | T47D > 100 µM | NCI-H522 > 100 µM | PC-3 > 100 µM | CCRF-CEM > 100 µM | SR > 100 µM | U-251 > 100 µM | MDA-MB-435 > 100 µM | UACC-257 > 100 µM | SF-295 > 100 µM | CAKI-1 > 100 µM | IGROV-1 > 100 µM
> 100 µM: HCT-15

C#CCNC(Cc1ccccc1)C(=O)O (stereo not drawn)
inactive: BT-549 > 100 µM | OVCAR-5 > 100 µM | EKVX > 100 µM | HOP-92 > 100 µM | HCC 2998 > 100 µM | A549 > 100 µM | SK-MEL-28 > 100 µM | RPMI-8226 > 100 µM | SNB-19 > 100 µM | HCT-116 > 100 µM | NCI-H460 > 100 µM | Malme-3M > 100 µM | KM12 > 100 µM | NCI/ADR-RES > 100 µM | HT-29 > 100 µM | 786-0 > 100 µM | UO-31 > 100 µM | SW-620 > 100 µM | M14 > 100 µM | SF-268 > 100 µM | DU-145 > 100 µM | TK-10 > 100 µM | A498 > 100 µM | SK-MEL-5 > 100 µM | ACHN > 100 µM | MOLT-4 > 100 µM | COLO 205 > 100 µM | OVCAR-8 > 100 µM | NCI-H226 > 100 µM | SK-MEL-2 > 100 µM | LOX IMVI > 100 µM | UACC-62 > 100 µM | OVCAR-3 > 100 µM | MDA-MB-231 > 100 µM | NCI-H23 > 100 µM | K562 > 100 µM | HOP-62 > 100 µM | SK-OV-3 > 100 µM | RXF 393 > 100 µM | HL-60 > 100 µM | SNB-75 > 100 µM | OVCAR-4 > 100 µM | Hs-578T > 100 µM | T47D > 100 µM | NCI-H522 > 100 µM | PC-3 > 100 µM | CCRF-CEM > 100 µM | SR > 100 µM | U-251 > 100 µM | MDA-MB-435 > 100 µM | UACC-257 > 100 µM | SF-295 > 100 µM | CAKI-1 > 100 µM | IGROV-1 > 100 µM
> 100 µM: HCT-15

Oc1nc2nc3ccccc3nc2nc1O
inactive: OVCAR-5 > 100 µM | EKVX > 100 µM | HOP-92 > 100 µM | HCC 2998 > 100 µM | A549 > 100 µM | SK-MEL-28 > 100 µM | RPMI-8226 > 100 µM | SNB-19 > 100 µM | HCT-116 > 100 µM | NCI-H460 > 100 µM | Malme-3M > 100 µM | KM12 > 100 µM | NCI/ADR-RES > 100 µM | HT-29 > 100 µM | 786-0 > 100 µM | UO-31 > 100 µM | SW-620 > 100 µM | M14 > 100 µM | SF-268 > 100 µM | DU-145 > 100 µM | SF-539 > 100 µM | TK-10 > 100 µM | SK-MEL-5 > 100 µM | ACHN > 100 µM | MOLT-4 > 100 µM | COLO 205 > 100 µM | MDA-N > 100 µM | OVCAR-8 > 100 µM | NCI-H226 > 100 µM | SK-MEL-2 > 100 µM | LOX IMVI > 100 µM | UACC-62 > 100 µM | SN12C > 100 µM | OVCAR-3 > 100 µM | MDA-MB-231 > 100 µM | NCI-H23 > 100 µM | K562 > 100 µM | HOP-62 > 100 µM | SK-OV-3 > 100 µM | RXF 393 > 100 µM | HL-60 > 100 µM | SNB-75 75.2 µM | MCF7 > 100 µM | OVCAR-4 > 100 µM | Hs-578T > 100 µM | T47D > 100 µM | NCI-H522 > 100 µM | PC-3 > 100 µM | CCRF-CEM > 100 µM | SR > 100 µM | U-251 > 100 µM | MDA-MB-435 > 100 µM | UACC-257 > 100 µM | SF-295 > 100 µM | CAKI-1 > 100 µM | IGROV-1 > 100 µM
> 100 µM: HCT-15
